{
  "source": "paper PMC8989696",
  "about": "“Characterization of furathiocarb metabolism in in-vitro human liver microsomes and recombinant cytochrome P450 enzymes” (Toxicology Reports, 2022)",
  "key": {"[1]": {"assay": "Furathiocarb biotransformation kinetics in individual human hepatic microsomes (10 donors)", "assay_type": "in vitro ADME", "details": "for Variation between the highest and lowest formation rate / Metabolite formation rate (lowest to highest of 10 donors): at 300 µM furathiocarb; for Variation between the highest and lowest formation rate: 10 donors; for Metabolite formation rate (lowest to highest of 10 donors): individual human hepatic microsomes", "protocol": "The incubation mixture (ﬁnal volume of 200 µl of 0.1 M phosphate buffer) contained 50 and 100 µM furathiocarb, 0.15 mg pooled liver microsomal protein (n = 10), and 1 mM NADPH. The reaction was initiated by NADPH after a 2 min pre-incubation at + 37 °C and was incubated for 30 min at + 37 °C. The reaction stopped with ice-cold acetonitrile containing an internal standard.\nEnzyme kinetic parameters of both the microsomal samples and rCYP enzymes were measured. The incubation mixture contained furathiocarb (2.5, 10, 25, 50, 150 and 300 µM). Incubation times were 20 and 30 min for microsomal samples and rCYPs, respectively. Otherwise incubation mixtures and methods were the same as in metabolite identification. The rate of sum of furathiocarb metabolite formation was linear at least up to 0.15 mg protein/ml and 30 min incubation time in the standard experimental conditions.\nThe standard incubation mixture contained 50 and 100 µM furathiocarb, 0.15 mg pooled liver microsomal protein (n = 10), and 1 mM NADPH in a ﬁnal volume of 200 µl of 0.1 M phosphate buffer (pH 7.4). Furathiocarb was prepared once a week in dimethylsulfoxide (DMSO; ﬁnal amount in the reaction medium 1.0%). After a 2-min incubation at +37 ◦C in a shaking incubator block, the reaction was started by adding NADPH. The mixture was incubated at +37 ◦C for 30 min and the reaction was stopped with 600 µl of ice-cold acetonitrile containing an internal standard. All incubations were carried out in triplicate."}, "[2]": {"details": "54; cited from earlier work"}, "CYP3A4 [3]": {"test_system": "CYP3A4", "details": "cited from earlier work"}, "2C19": {"test_system": "2C19", "details": "read-out: IC50, 2C19; range given jointly for CYP2C9, 2C19 and CYP2D6; no reference given; cited from earlier work"}, "CYP2C9": {"test_system": "CYP2C9", "details": "read-out: IC50, CYP2C9; range given jointly for CYP2C9, 2C19 and CYP2D6; no reference given; cited from earlier work"}, "CYP2D6": {"test_system": "CYP2D6", "details": "cited from earlier work"}, "2B6": {"test_system": "2B6", "details": "read-out: IC50, CYP 2B6; cited from earlier work"}, "CYPs 1A1/2": {"test_system": "CYPs 1A1/2", "details": "read-out: IC50, CYP 1A1/2; cited from earlier work"}, "CYP3A4 [4]": {"test_system": "CYP3A4", "assay": "in vitro", "details": "ketoconazole 100 µM, pooled human hepatic microsomes", "protocol": "Formation rates of metabolites were determined in the presence or absence of ketoconazole 100 µM.\nEach point represents the mean ± S.D of three separate determinations."}, "[5]": {"details": "read-out: IC50, CYP3A4 (MDZ-OH)"}},
  "note": "Read-outs that look alike come from different tables or passages of the source.",
  "data": [
    {"smiles": "CC1(C)Oc2c(O)cccc2C1O", "note": "(stereo not drawn) [3-hydroxy-7-phenolcarbofuran]", "values": [
      {"measurement": "Variation between the highest and lowest formation rate", "setting": "[1]", "result": 23, "unit": "fold"},
      {"measurement": "Metabolite formation rate (lowest to highest of 10 donors)", "setting": "[1]", "result": "0.02–0.52 nmol/(mg protein min)"}
    ]},
    {"smiles": "CNC(=O)Oc1cccc2c1OC(C)(C)C2O", "note": "(stereo not drawn) [3-hydroxycarbofuran]", "values": [
      {"measurement": "Variation between the highest and lowest formation rate", "setting": "[1]", "result": 10, "unit": "fold"},
      {"measurement": "Metabolite formation rate (lowest to highest of 10 donors)", "setting": "[1]", "result": "0.68 to 6.83 nmol/(mg protein min)"}
    ]},
    {"smiles": "CC1(C)Oc2c(O)cccc2C1=O", "note": "[3-keto-7-phenolcarbofuran]", "values": [
      {"measurement": "Metabolite amounts formed in HLM31", "setting": "[1]; HLM31, all furathiocarb concentrations used", "result": "below the limits of quantiﬁcation"}
    ]},
    {"smiles": "CNC(=O)Oc1cccc2c1OC(C)(C)C2=O", "note": "[3-ketocarbofuran]", "values": [
      {"measurement": "Variation between the highest and lowest formation rate", "setting": "[1]", "result": 54.4, "unit": "fold"},
      {"measurement": "Metabolite formation rate (lowest to highest of 10 donors)", "setting": "[1]", "result": "0.28–15.6 nmol/(mg protein min)"}
    ]},
    {"smiles": "CC1(C)Cc2cccc(O)c2O1", "note": "[7-phenolcarbofuran]", "values": [
      {"measurement": "Variation between the highest and lowest formation rate", "setting": "[1]", "result": 2, "unit": "fold"},
      {"measurement": "Metabolite formation rate (lowest to highest of 10 donors)", "setting": "[1]", "result": "4.5–8.3 nmol/(mg protein min)"}
    ]},
    {"smiles": "CNC(=O)Oc1cccc2c1OC(C)(C)C2", "note": "[Carbofuran, carbofuran]", "values": [
      {"measurement": "Toxic class, WHO classification of pesticides by hazard", "setting": "[2]", "result": 1, "unit": "b"}
    ]},
    {"smiles": "CCCCN(CCCC)SN(C)C(=O)Oc1cccc2c1OC(C)(C)C2", "note": "[Carbosulfan]", "values": [
      {"measurement": "IC50", "setting": "CYP3A4 [3]; [5]", "result": 11.2, "unit": "µM"},
      {"measurement": "IC50", "setting": "2C19", "result": "16 to 25", "unit": "µM"},
      {"measurement": "IC50", "setting": "CYP2C9", "result": "16 to 25", "unit": "µM"},
      {"measurement": "IC50", "setting": "CYP2D6; read-out: IC50, CYP2D6, range given jointly for CYP2C9, 2C19 and CYP2D6, no reference given", "result": "16 to 25", "unit": "µM"}
    ]},
    {"smiles": "CCOP(=S)(OCC)Oc1nc(Cl)c(Cl)cc1Cl", "note": "[Chlorpyrifos]", "values": [
      {"measurement": "IC50", "setting": "2B6", "result": 2.5, "unit": "µM"},
      {"measurement": "IC50", "setting": "CYP3A4 [3]; read-out: IC50, CYP 3A4", "result": 4, "unit": "µM"},
      {"measurement": "IC50", "setting": "CYP2D6; read-out: IC50, CYP 2D6", "result": 3.3, "unit": "µM"},
      {"measurement": "IC50", "setting": "CYPs 1A1/2", "result": 2.9, "unit": "µM"}
    ]},
    {"smiles": "CC(=O)N1CCN(c2ccc(OCC3COC(Cn4ccnc4)(c4ccc(Cl)cc4Cl)O3)cc2)CC1", "note": "(stereo not drawn) [Ketoconazole]", "values": [
      {"measurement": "inhibition at 20 min, 100 µM", "setting": "CYP3A4 [4]; human, microsomes, Inhibition of carbofuran metabolic pathway formation, various furathiocarb concentrations", "result": "32 to 86", "unit": "%"},
      {"measurement": "Effect on the formation of metabolite A", "setting": "CYP3A4 [4]", "result": "no effects"}
    ]},
    {"smiles": "CCOC(=O)CCN(SN(C)C(=O)Oc1cccc2c1OC(C)(C)C2)C(C)C", "note": "[benfuracarb]", "values": [
      {"measurement": "IC50", "setting": "CYP3A4 [3]; [5]", "result": 14.8, "unit": "µM"}
    ]}
  ]
}
